Source: patent EP4563573A1, “COMPOUND, AND PREPARATION METHOD THEREFOR AND USE THEREOF IN PREPARATION OF SEH INHIBITOR AND PPARS AGONIST” (Shenyang Pharmaceutical University, priority 2023, dated 2024)
Like-named read-outs stand apart in the source and are kept apart here.

Key:
[1] = biological target: T1, PPARγ (Homo sapiens, UniProt P37231); assay: PPARγ agonist activity test (luciferase reporter gene); format: cell-based; details: for PPARγ (compared with Rosiglitazone, %): relative to Rosiglitazone
T1 sequence (P37231 204-505): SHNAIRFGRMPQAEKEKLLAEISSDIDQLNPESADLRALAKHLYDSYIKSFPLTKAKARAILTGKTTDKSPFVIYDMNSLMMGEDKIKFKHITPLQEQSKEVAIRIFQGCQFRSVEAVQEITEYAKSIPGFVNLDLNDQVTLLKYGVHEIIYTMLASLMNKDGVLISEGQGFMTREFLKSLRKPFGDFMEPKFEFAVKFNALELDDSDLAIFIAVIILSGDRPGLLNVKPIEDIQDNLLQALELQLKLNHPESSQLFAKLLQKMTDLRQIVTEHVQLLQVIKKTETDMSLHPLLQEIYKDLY
Source text: • 1. PPARγ agonist activity test Detection principle: when pM-hPPAR binds to the appropriate ligand, and is activated and binds to the GAL4DNA binding site in the plasmid pB4-RES-tk-luc, thereby initiating the expression of the downstream luciferase reporter gene. The amount of luciferase is detected to determine whether the compound to be tested is a PPAR agonist. • 2.

[2] = biological target: T2, recombinant human sEH (HsEH) (Homo sapiens, UniProt P34913)
T2 sequence (P34913 1-555): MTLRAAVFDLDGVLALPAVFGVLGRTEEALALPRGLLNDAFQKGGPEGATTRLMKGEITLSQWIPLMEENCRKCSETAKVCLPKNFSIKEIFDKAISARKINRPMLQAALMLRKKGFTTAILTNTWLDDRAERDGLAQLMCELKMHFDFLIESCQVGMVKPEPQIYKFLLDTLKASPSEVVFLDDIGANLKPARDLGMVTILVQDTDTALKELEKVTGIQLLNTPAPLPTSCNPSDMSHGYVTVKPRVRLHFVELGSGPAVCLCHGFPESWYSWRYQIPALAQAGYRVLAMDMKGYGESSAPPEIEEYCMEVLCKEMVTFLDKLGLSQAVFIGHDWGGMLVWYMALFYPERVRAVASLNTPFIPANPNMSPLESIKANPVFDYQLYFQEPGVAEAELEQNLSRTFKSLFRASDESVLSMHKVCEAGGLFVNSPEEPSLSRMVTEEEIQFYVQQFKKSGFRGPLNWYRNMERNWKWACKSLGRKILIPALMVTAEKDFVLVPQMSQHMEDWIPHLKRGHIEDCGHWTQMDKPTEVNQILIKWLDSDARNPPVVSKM
Procedure: (§1) Detection principle: a specific substrate, (3-phenyl-oxy)-acetic acid cyano-(6-methoxy-naphthalen-2-yl) methyl ester, namely PHOME, is non-fluorescent but can be hydrolyzed under the action of sEH enzyme to generate a product 6-methoxy-2-naphthaldehyde. […] Based on the above principle, the inhibition rates of samples with different concentrations were calculated compared with the positive control group. The IC50 value of the compound was calculated based on the inhibition rate and concentration using SPSS 20 software.
(§2) PHOME solution: 0.79 mg PHOME was dissolved in 106 µL DMSO to obtain a 20 mM PHOME solution, which was diluted to 1/3 mM with Tris-HCl buffer when used.
(§3) sEH solution: sEH (5 mg/mL) stock solution was stored in a -80°C refrigerator and diluted to 4 µg/mL with 25 mM Tris-HCl buffer when used.
(§4) A sample powder to be tested was dissolved in DMSO to a 20 mM solution, stored in a - 20°C refrigerator for later use, and diluted with Tris-HCl buffer to the corresponding concentration when used.
(§5) Experimental design: solvent group, 100% activity group (A), inhibitor group (B), positive control group (C), as shown in Table 1.
(§6) Three replicate wells were set for each sample, and the average of the three replicate wells was the fluorescence value (F) of the compound to be tested. […] The IC50 value of the compound was calculated based on the inhibition rate and concentration using SPSS 20 software.
(§7) The activity of the compounds was evaluated using a biochemical method with [cyano-(6-methoxynaphthalen-2-yl)methyl] 2-(3-phenyloxiran-2-yl)acetate (PHOME) as a substrate using recombinant human sEH (HsEH) and murine sEH (MsEH).

[3] = biological target: T3, murine sEH (MsEH) (Mus musculus, UniProt P34914); assay: biochemical
T3 sequence (P34914 1-554): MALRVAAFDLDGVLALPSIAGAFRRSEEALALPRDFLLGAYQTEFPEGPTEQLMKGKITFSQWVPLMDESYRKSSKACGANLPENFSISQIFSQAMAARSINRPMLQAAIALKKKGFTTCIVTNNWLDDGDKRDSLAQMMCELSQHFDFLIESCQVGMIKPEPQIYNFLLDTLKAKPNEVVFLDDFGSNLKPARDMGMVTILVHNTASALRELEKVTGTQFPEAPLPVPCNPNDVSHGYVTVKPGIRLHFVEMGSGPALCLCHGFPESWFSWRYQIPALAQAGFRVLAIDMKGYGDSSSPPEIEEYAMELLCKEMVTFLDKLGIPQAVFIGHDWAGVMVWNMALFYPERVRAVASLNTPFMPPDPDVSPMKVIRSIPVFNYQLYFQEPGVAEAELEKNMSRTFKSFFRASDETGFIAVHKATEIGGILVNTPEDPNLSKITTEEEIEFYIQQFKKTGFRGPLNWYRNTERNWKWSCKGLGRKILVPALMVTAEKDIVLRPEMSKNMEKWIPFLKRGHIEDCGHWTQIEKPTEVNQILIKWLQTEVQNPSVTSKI
Procedure: as §1, §2, §3, §4, §5, §6, §7

[4] = test system: LPS-induced sepsis model; assay: LPS-induced sepsis model; format: in vivo, Male C57BL/6 mice; details: LPS 25 mg/kg i.p., administration 4 h after modeling, twice at 8 h interval, n=7
Procedure: The drug was administered twice, with an interval of 8 h between administrations.

[5] = biological target: T3, murine sEH (MsEH); details: read-out: MsEH IC50, PHOME substrate
Procedure: as §1, §2, §3, §4, §5, §6, §7

[6] = Pharmacokinetics after intravenous and oral administration; details: rats, i.v. 10 mg/kg
Procedure: Blood levels were measured within 8 hours after oral administration. […] Table 7 PK of SP-B07 after intravenous and oral administration in rats (n=3)

[7] = read-out: HsEH IC50, recombinant human sEH, PHOME substrate

Compound	PPARγ (compared with Rosiglitazone, %) [1] [%]	IC50 [2] [nM]	IC50 [3] [nM]	IC50 [5] [nM]	IC50 [2, 7] [nM]	further results
CC12CC3CC(C)(C1)CC(NC(=O)N[C@H]1CC[C@H](Oc4ccc(CC5SC(=O)NC5=O)cc4)CC1)(C3)C2 (stereo partly drawn) [SP-A01]	34.5	0.55	0.54	–	–	EC50 [1]: 6770 nM
CCOC(=O)CC(=O)Nc1ccc(O[C@H]2CC[C@H](NC(=O)Nc3ccc(OC(F)(F)F)c(F)c3)CC2)cc1 [SP-C01s]	0.3	0.3	0.6	–	–	–
C[C@@H]1C[C@H]2[C@@H]3CCC4=CC(=O)C=C[C@]4(C)[C@@]3(F)[C@@H](O)C[C@]2(C)[C@@]1(O)C(=O)CO [dexamethasone, reference compound]	–	–	–	–	–	increase of the survival rate [4]: 57.1%
CCC(=O)Nc1ccc(OC2CCCC(NC(=O)NC34CC5CC(C)(CC(C)(C5)C3)C4)C2)cc1 (stereo not drawn) [SP-C01m]	0.9	–	–	6.7	0.9	–
O=C(Nc1ccc(OC(F)(F)F)c(F)c1)N[C@H]1CC[C@H](Oc2ccc(/C=C3\SC(=O)NC3=O)cc2)CC1 [SP-B06]	19.3	0.69	1.1	–	–	–
O=C1NC(=O)/C(=C/c2ccc(OC3CCN(C(=O)Nc4ccc(OC(F)(F)F)cc4)CC3)cc2)S1 [SP-B05, (Z)-4-{4-[(2,4-dioxothiazolidin-5-ylidene)methyl]phenoxy}-N-[4-(trifluoromethoxy)phenyl]piperidin-1-carboxamide]	17.3	–	–	–	–	–
O=C(Nc1ccc(OC(F)(F)F)c(F)c1)N[C@H]1CC[C@H](Oc2ccc(CC3SC(=O)NC3=O)cc2)CC1 (stereo partly drawn) [SP-A07]	21.1	0.07	0.67	–	–	EC50 [1]: 7750 nM
CC12CC3CC(C)(C1)CC(NC(=O)N1CCC(Oc4ccc(/C=C5\SC(=O)NC5=O)cc4)CC1)(C3)C2 [SP-B02]	14.6	19.9	23.4	–	–	–
O=C1NC(=O)C(Cc2ccc(OC3CCN(C(=O)Nc4ccc(OC(F)(F)F)cc4)CC3)cc2)S1 (stereo not drawn) [SP-A05]	14.3	–	–	0.43	0.53	–
NC(=O)c1ccc(O[C@H]2CC[C@H](NC(=O)Nc3ccc(OC(F)(F)F)cc3)CC2)cc1 [SP-C01i]	12.97	0.3	0.7	–	–	–
O=C1NC(=O)/C(=C/c2ccc(OC3CCN(C(=O)Nc4ccc(OC(F)(F)F)cc4)CC3)cc2)N1 [SP-B04]	9.6	156	108	–	–	–
CC(=O)Oc1ccc(O[C@H]2CC[C@H](NC(=O)Nc3ccc(OC(F)(F)F)c(F)c3)CC2)cc1 [SP-C01, phenyl 4-(((1r,4r)-4-(3-(3-fluoro-4-(trifluoromethoxy)phenyl)ureido)cyclohexyl)oxy)acetate]	–	–	–	–	–	time at which maximum concentration was reached after intravenous injection [6]: 2 min
O=C1NC(=O)C(Cc2ccc(OC3CCN(C(=O)Nc4ccc(OC(F)(F)F)c(F)c4)CC3)cc2)S1 (stereo not drawn) [SP-A06]	28.4	–	–	0.73	1.3	–
CC(=O)Nc1ccc(O[C@H]2CC[C@H](NC(=O)Nc3ccc(OC(F)(F)F)c(F)c3)CC2)cc1 [SP-C01k, N-(4-(((1r,4r)-4-(3-(3-fluoro-4-(trifluoromethoxy)phenyl)ureido)cyclohexyl)oxy)phenyl)acetamide]	0.3	–	–	–	–	–
CC12CC3CC(C)(C1)CC(NC(=O)N1CCC(Oc4ccc(/C=C5\NC(=O)NC5=O)cc4)CC1)(C3)C2 [SP-B03, N-[(1r,3R,5S,7r)-3,5-dimethyladamantan-1-yl]-4-{4-[(Z)-(2,5-dioxyimidazolin-4-ylidene)methyl]phenoxy}piperidin-1-carboxamide]	10.2	121	135	–	–	–
CC12CC3CC(C)(C1)CC(NC(=O)N1CCC(Oc4ccc(CC5SC(=O)NC5=O)cc4)CC1)(C3)C2 (stereo not drawn) [SP-A02]	25.2	83.5	8.3	–	–	–
COC(=O)CN1C(=O)S/C(=C\c2ccc(O[C@H]3CC[C@H](NC(=O)Nc4ccc(OC(F)(F)F)cc4)CC3)cc2)C1=O [SP-D01, methyl 2-(2,4-dioxo-5-((Z)-4-(((1r,4r)-4-(3-(4-(trifluoromethoxy)phenyl)ureido)cyclohexyl)oxy)benzylidene)thiazolidin-3-yl)acetate]	1.1	–	–	2.4	1.1	–
CCC(C)C(=O)Nc1ccc(OC2CCCC(NC(=O)NC34CC5CC(C)(CC(C)(C5)C3)C4)C2)cc1 (stereo not drawn) [SP-C01n]	0.7	–	–	1.3	0.7	–
COC(=O)CN1C(=O)S/C(=C\c2ccc(O[C@H]3CC[C@H](NC(=O)NC45CC6C[C@@](C)(C4)C[C@](C)(C6)C5)CC3)cc2)C1=O [SP-D04, methyl 2-(5-((Z)-4-(((1R,4r)-4-(3-((1R,3R,5S,7R)-3,5-dimethyladamantan-1-yl)ureido)cyclohexyl)oxy)benzylidene)-2,4-dioxythiazolin-3-yl)acetate]	1.2	–	–	10.1	1.2	–
